Assay results from US4474780A, “Crystalline cephalosporin” (Eli Lilly and Company, priority 1983, dated 1984).
Where two headings read alike, the source gives them in different places.

How the values were obtained:
[1] = background statement; cited from earlier work
gram positive = conditions: background statement; cited from earlier work
[2] = background statement; cited from earlier work; remark: listed apart in the source
[3] = Solubility (saturated solution in water at 37° C.); format: physicochemical; conditions: for solubility: water, 37° C.
Description: For example, the compound forms a saturated solution in water at 37° C. according to the following table: […]

[4] = Titration (66% N,N-dimethylformamide/water); format: physicochemical; conditions: 66% dmf/water
From the text: Titration (66% N,N-dimethylformamide/water) pKa 5.5, 7.5, 11.2.

[5] = Stability of the crystal form; format: physicochemical; conditions: prolonged periods of time
[6] = Absorption following oral administration; format: in vivo
Pharmacokinetics = format: in vivo; conditions: in words; tetrahydrate, oral
[7] = system: Peptostreptococcus anaerobius; assay: Activity against anaerobic cocci
Peptostrept. intermedius = assay: Activity against anaerobic cocci

## CC1=C(C(=O)O)N2C(=O)C(NC(=O)[C@H](N)c3ccc4ccccc4c3)C2SC1 (stereo partly drawn) [7-(D-2-Naphthylglycylamido)-3-methyl-3-cephem-4-carboxylic acid]
[1]
  pharmacokinetics: favorable pharmacokinetics
Gram positive
  gram positive activity: excellent gram positive activity
[2]
  orally active antibiotic: potent orally active antibiotic

## CC1=C(C(=O)O)N2C(=O)C(NC(=O)[C@H](N)c3ccc4ccccc4c3)C2SC1 (stereo partly drawn) [7-(D-2-naphthylglycylamido)-3-methyl-3-cephem-4-carboxylic acid tetrahydrate]
[3]; in words
  solubility in water: only minimally soluble in water
[3]; pH 1.2
  solubility: 8600 µg/mL
[3]; pH 2.0
  solubility: 1700 µg/mL
[3]; pH 3.0
  solubility: 200 µg/mL
[3]; pH 4.0
  solubility: 200 µg/mL
[3]; pH 5.0
  solubility: 200 µg/mL
[3]; pH 6.0
  solubility: 300 µg/mL
[3]; pH 7.0
  solubility: 800 µg/mL
[3]; pH 7.5
  solubility: 1200 µg/mL
[3]; pH 8.0
  solubility: 4100 µg/mL
[3]; pH 8.5
  solubility: 7500 µg/mL
[4]; first value
  pKa: 5.5
[4]; second value
  pKa: 7.5
[4]; third value
  pKa: 11.2
[5]
  stability: very stable for prolonged periods of time
[6]
  absorption following oral administration: very well absorbed following oral administration
Pharmacokinetics
  pharmacokinetics: favorable pharmacokinetics
[7]
  effective against anaerobic cocci: effective
Peptostrept. intermedius
  effective against anaerobic cocci: effective
